From patent publication US10676508B2, “DEPDC1-derived peptide and vaccine containing same” (OncoTherapy Science, Inc., priority 2015, dated 2020)

Assays:
[1] = system: peptide-pulsed C1R-A01 cells; assay: In vitro CTL induction, IFN-gamma ELISPOT assay (HLA-A*0101); format: cell-based, human; details: CTLs from HLA-A*0101-positive donors, DCs pulsed with 20 micro-g/ml peptide, day 21, versus unpulsed C1R-A01
Description: Monocyte-derived dendritic cells (DCs) were used as the antigen-presenting cell to induce a cytotoxic T lymphocyte (CTL) response against peptides presented on human leukocyte antigens (HLAs). As described in the other sections, DCs were generated in vitro (Nakahara S et al., Cancer Res 2003, 63(14): 4112-8). Specifically, peripheral-blood mononuclear cells isolated from healthy volunteers (HLA-A*0101-positive) with the Ficoll-Paque plus solution (Pharmacia) were separated by attaching to plastic tissue culture dishes (Becton Dickinson) and concentrated as a monocyte fraction. The monocyte-concentrated population was cultured in the presence of 1000 IU/ml granulocyte macrophage colony-stimulating factor (R&D System) and 1000 IU/ml interleukin (IL)-4 (R&D System) in an AIM-V medium (Invitrogen) containing 2% heat-inactivated autologous serum (AS). After seven days of culturing, the cytokine-induced DCs were pulsed with 20 micro-g/ml each of the synthesized peptides in an AIM-V medium at 37 degrees C. for three hours in the presence of 3 micro-g/ml beta 2-microglobulin. Next, these peptide-pulsed DCs were inactivated by X-ray irradiation (20 Gy), and mixed in a 1:20 ratio with autologous CD8^+ T cells obtained by positive selection using the CD8 Positive Isolation Kit (Dynal). These culture products were seeded in a 48-well plate (Corning). Each well was made to contain 1.5×10^4 peptide-pulsed DCs, 3×10^5 CD8^+ T cells and 10 ng/ml IL-7 (R&D System) in 0.5 ml of the AIM-V/2% AS medium. Three days later, these culture products were added with a final concentration of 20 IU/ml IL-2 (CHIRON). On day 7 and day 14, T cells were further stimulated with peptide-pulsed autologous DCs. The DCs were prepared every time by the same method as above. On day 21, after the third peptide stimulation, CTL activities were examined against the peptide-pulsed C1R-A01 cells (Tanaka H et al., Br J Cancer 2001, 84(1): 94-9; Umano Y et al., Br J Cancer 2001, 84(8): 1052-7; Uchida N et al., Clin Cancer Res 2004, 10(24): 8577-86; Suda T et al., Cancer Sci 2006, 97(5): 411-9; Watanabe T et al., Cancer Sci 2005, 96(8): 498-506).
To examine specific CTL activity, an IFN-gamma ELISPOT assay and an IFN-gamma ELISA were performed. Specifically, peptide-pulsed C1R-A01 cells (1×10^4 cells/well) were prepared as the stimulator cell. The induced CTLs, i.e., CTL lines and CTL clones, were used as the responder cell. The IFN-gamma ELISPOT assay and IFN-gamma ELISA were performed according to the manufacturer's manual.

[2] = system: peptide-pulsed C1R-A01 cells; assay: IFN-gamma ELISA of CTL line and CTL clone (HLA-A*0101); format: cell-based, human
Description: (§1) CTLs were propagated in culture using methods similar to those disclosed by Riddell et al. (Walter E A et al., N Engl J Med 1995, 333(16): 1038-44; Riddell S R et al., Nat Med 1996, 2(2): 216-23). The CTLs were co-cultured in a total of 25 ml AIM-V medium containing 5% AS and 40 ng/ml anti-CD3 antibody with two types of Mitomycin C-treated human B lymphoblastoid cell lines at 5×10^6 cells. One day after beginning of the culturing, 120 IU/ml IL-2 was added to the culture. On days 5, 8 and 11, a fresh AIM-V/5% AS medium containing 30 IU/ml IL-2 was added to the culture (Tanaka H et al., Br J Cancer 2001, 84(1): 94-9; Umano Y et al., Br J Cancer 2001, 84(8): 1052-7; Uchida N et al., Clin Cancer Res 2004, 10(24): 8577-86; Suda T et al., Cancer Sci 2006, 97(5): 411-9; Watanabe T et al., Cancer Sci 2005, 96(8): 498-506).
CTLs were seeded to make 1 or 10 cells/well in 96 round-bottomed microtiter plates (Nalge Nunc International). The CTLs were co-cultured with two types of Mitomycin C-treated human B lymphoblastoid cell lines at 1×10^4 cells in a total of 150 micro-l/well 5% AS-containing AIM-V medium with 30 ng/ml anti-CD3 antibody and 125 IU/ml IL-2. Ten days later, 50 micro-1 of IL-2 at 500 IU/ml in 5% AS-containing AIM-V medium was added to the medium. […]

[3] = system: COS7 cells transfected with DEPDC1 and HLA-A*0101; assay: Specific CTL activity against target cells expressing DEPDC1 and HLA-A*0101; format: cell-based, African green monkey; details: peptide-induced CTL clone
Description: A cDNA encoding the open-reading frame of a target gene or HLA-A*0101 was amplified by PCR. The PCR-amplified product was cloned into an expression vector. Expression vectors were transfected using Lipofectamine 2000 (Invitrogen) following the manufacturer's recommended protocol. Two days after transfection, the transfected cells were harvested using versene (Invitrogen), and used as the stimulator cell for CTL activity assay (5×10^4 cells/well).
The CTL clone induced with DEPDC1-A01-11-44 (SEQ ID NO: 108) was investigated for its ability to recognize target cells expressing DEPDC1 and the HLA-A*0101 molecule. COS7 cells transfected with both full-length DEPDC1 and the HLA-A*0101 gene were prepared as the target cell. COS7 cells transfected with either full-length DEPDC1 or HLA-A*0101 were prepared as the control.

peptide-pulsed C1R-A11 [4] = assay: In vitro CTL induction, IFN-gamma ELISPOT assay (HLA-A*1101); format: cell-based, human; details: CTLs from HLA-A*1101-positive donors, DCs pulsed with 20 micro-g/ml peptide, day 21, versus unpulsed C1R-A11
Description: Monocyte-derived dendritic cells (DCs) were used as the antigen-presenting cell to induce a cytotoxic T lymphocyte (CTL) response against peptides presented on human leukocyte antigens (HLAs). As described in the other sections, DCs were generated in vitro (Nakahara S et al., Cancer Res 2003, 63(14): 4112-8). Specifically, peripheral-blood mononuclear cells isolated from healthy volunteers (HLA-A*1101-positive) with the Ficoll-Paque plus solution (Pharmacia) were separated by attaching to plastic tissue culture dishes (Becton Dickinson) and concentrated as a monocyte fraction. The monocyte-concentrated population was cultured in the presence of 1000 IU/ml granulocyte macrophage colony-stimulating factor (R&D System) and 1000 IU/ml interleukin (IL)-4 (R&D System) in an AIM-V medium (Invitrogen) containing 2% heat-inactivated autologous serum (AS). After seven days of culturing, the cytokine-induced DCs were pulsed with 20 micro-g/ml each of the synthesized peptides in an AIM-V medium at 37 degrees C. for three hours in the presence of 3 micro-g/ml beta 2-microglobulin.
Next, these peptide-pulsed DCs were inactivated by X-ray irradiation (20 Gy), and mixed in a 1:20 ratio with autologous CD8^+ T cells obtained by positive selection using the CD8 Positive Isolation Kit (Dynal). These culture products were seeded in a 48-well plate (Corning). […]

peptide-pulsed C1R-A11 [5] = assay: IFN-gamma ELISA of CTL line and CTL clones (HLA-A*1101); format: cell-based, human
Description: as §1, with “5% AS (AIM-V/5% AS) and 40” for “5% AS and 40”, “cell lines (5×10^6 cells). One day” for “cell lines at 5×10^6 cells. One day”
CTLs were seeded to make 1 or 10 cells/well in 96 round-bottomed microtiter plates (Nalge Nunc International). The CTLs were co-cultured with two types of Mitomycin C-treated human B lymphoblastoid cell lines at 1×10^4 cells in a total of 150 micro-l/well AIM-V/5% AS medium with 30 ng/ml anti-CD3 antibody and 125 IU/ml IL-2. Ten days later, IL-2 at 500 IU/ml in 50 micro-1 AIM-V/5% AS medium was added to the medium. […]

[6] = system: COS7 cells transfected with DEPDC1 and HLA-A*1101; assay: Specific CTL activity against target cells expressing DEPDC1 and HLA-A*1101; format: cell-based, African green monkey; details: peptide-induced CTL line
Description: A cDNA encoding the open-reading frame of a target gene or HLA-A*1101 was amplified by PCR. The PCR-amplified product was cloned into an expression vector. Either or both of the target gene-expressing vector and the HLA-A*1101-expressing vector were transfected into COS7 cells, which is a cell line negative for the target gene and HLA, using Lipofectamine 2000 (Invitrogen) following the manufacturer's recommended protocol. Two days after transfection, the transfected cells were harvested using versene (Invitrogen), and used as the target cell for CTL activity assay (5×10^4 cells/well).
The CTL line induced with DEPDC1-A11-9-627 (SEQ ID NO: 1) was investigated for its ability to recognize target cells expressing DEPDC1 and the HLA-A*1101 molecule. COS7 cells transfected with both full-length DEPDC1 and the HLA-A*1101 gene were prepared as the target cell. COS7 cells transfected with either full-length DEPDC1 or HLA-A*1101 were prepared as the control.

Sequence	peptide-specific CTL activity (IFN-gamma production, ELISPOT) [1]	IFN-gamma production of CTL clone (ELISA) ([2]; CTL clone by limiting dilution, peptide-pulsed C1R-A01 cells)	IFN-gamma production of the CTL line (ELISA) ([2]; CTL line from Well #8, peptide-pulsed versus unpulsed target cells)	CTL activity against control COS7 cells ([3]; COS7 transfected with either full-length DEPDC1 or HLA-A*0101)	CTL activity against COS7 cells expressing both DEPDC1 and HLA-A*0101 [3]	peptide-specific CTL activity (IFN-gamma production, ELISPOT) (peptide-pulsed C1R-A11 [4])	IFN-gamma production of CTL clones (ELISA) (peptide-pulsed C1R-A11 [5]; CTL clones by limiting dilution, peptide-pulsed C1R-A11 cells)	IFN-gamma production of the CTL line (ELISA) (peptide-pulsed C1R-A11 [5]; CTL line from Well #4, peptide-pulsed versus unpulsed target cells)	CTL activity against control COS7 cells ([6]; COS7 transfected with either full-length DEPDC1 or HLA-A*1101)	CTL activity against COS7 cells expressing both DEPDC1 and HLA-A*1101 [6]
FTAGEAVDWLY (a peptide derived from DEPDC1) [SEQ ID NO: 108]	potent IFN-gamma production	Potent IFN-gamma production	potent IFN-gamma production	a significant specific CTL activity was not detected	potent CTL activities					
MSQNVDMPK [SEQ ID NO: 1]						potent IFN-gamma production	Potent IFN-gamma production	potent IFN-gamma production	a significant specific CTL activity was not detected	potent CTL activity
